Assay results as given in publication PMC11823609, “Advancements in the fight against globally distributed OXA-48 carbapenemase: evaluating the new generation of carbapenemase inhibitors” (Antimicrobial Agents and Chemotherapy, 2025).
≈ marks a conversion by molar mass, not a printed value. Read-outs that look alike come from different tables or passages of the source.

Tests used:
E. coli TG1 = test: microbe, parasite or virus in culture; format: cell-based; settings: Escherichia coli
Protocol: (§1) The MICs of each of the individual compounds (antibiotics or inhibitors) were also determined. The MICs were determined for the E. coli isogenic expressing OXA-48 (and both OXA-48 and CTX-M-14) to assess their activity against the carbapenemase; MICs were also determined for the 18 Enterobacterales clinical isolates in order to evaluate the new inhibitors against also their resistance concomitant mechanisms. The MICs were determined in triplicate experiments, and the EUCAST 13.0 clinical breakpoints were followed (http://www.eucast.org/clinical_breakpoints).
(§2) For comparative evaluation of the activity of each inhibitor alone against the carbapenemase OXA-48, all inhibitors (at 4 mg/L) were tested in the presence of a carbapenem (ertapenem, adequate substrate) and a cephalosporin (ceftazidime, poor substrate) as reporter substrates. This prevented any possible masking effect produced by the different partner antibiotics. These assays were also performed with isogenic transformants and clinical isolates.

E. coli TG1 (OXA-48) = test: microbe, parasite or virus in culture; format: cell-based, Escherichia coli; settings: Escherichia coli
Protocol: as §1, §2

[1] = tested on: E. coli HB4 ΔompC/F (CTX-M-14 + OXA-48); test: microbe, parasite or virus in culture; format: cell-based, Escherichia coli; settings: Escherichia coli
Description: (§3) The E. coli HB4 strain was used to gain a more complete perspective, by evaluating the involvement in resistance of a low permeability background with the carbapenemase OXA-48, as well as coproduction of an ESBL and the carbapenemase; thus, the ESBL CTX-M-14 and OXA-48 were cloned together and separately into E. coli HB4. The characteristics of these strains and transformants are summarized in Table S1, and the cloning procedures are outlined in the supplemental methods.
as §1, §2

E. coli HB4 ΔompC/F = test: microbe, parasite or virus in culture; format: cell-based, Escherichia coli; settings: Escherichia coli
Description: as §3, §1, §2

[2] = tested on: E. coli HB4 ΔompC/F (OXA-48); test: microbe, parasite or virus in culture; format: cell-based, Escherichia coli; settings: Escherichia coli
Description: as §3, §1, §2

[3] = tested on: E. coli HB4 ΔompC/F (CTX-M-14); test: microbe, parasite or virus in culture; format: cell-based, Escherichia coli; settings: Escherichia coli
Description: as §3, §1, §2

[4] = tested on: E. cloacae strain 235 (MLST 171, ESBL); test: microbe, parasite or virus in culture; format: cell-based; settings: Enterobacter cloacae
Protocol: (§4) The efficacy of these new BLIs was also evaluated against 18 genetically diverse WGS-characterized collection of OXA-48-positive Enterobacterales recovered as part of the Carbapenem-resistant Enterobacterales Genome Database Project (https://genomes.cnag.cat/incredble) listed in Table S2 ([13]). Combinations of clinical isolates (five pairs of Klebsiella pneumoniae, two pairs of Enterobacter cloacae, and two pairs of E. coli) were chosen for analysis: (i) nine strains carrying ESBLs; and (ii) nine strains (genetically closer available strains) without ESBLs.
as §1, §2

[5] = tested on: K. pneumoniae strain 497 (MLST 11, No ESBL); test: microbe, parasite or virus in culture; format: cell-based; settings: Klebsiella pneumoniae, K. pneumoniae 497, read-out: MIC
Protocol: as §4, §1, §2

[6] = tested on: K. pneumoniae strain 413 (MLST 147, ESBL); test: microbe, parasite or virus in culture; format: cell-based; settings: Klebsiella pneumoniae
Protocol: as §4, §1, §2

[7] = tested on: K. pneumoniae strain 125 (MLST 307, ESBL); test: microbe, parasite or virus in culture; format: cell-based; settings: Klebsiella pneumoniae
Protocol: as §4, §1, §2

[8] = tested on: K. pneumoniae strain 237 (MLST 147, No ESBL); test: microbe, parasite or virus in culture; format: cell-based; settings: Klebsiella pneumoniae, K. pneumoniae 237, read-out: MIC
Protocol: as §4, §1, §2

[9] = tested on: E. coli strain 264 (MLST 131, No ESBL); test: microbe, parasite or virus in culture; format: cell-based; settings: Escherichia coli, E. coli 264, read-out: MIC
Protocol: as §4, §1, §2

[10] = tested on: K. pneumoniae strain 194 (MLST 392, No ESBL); test: microbe, parasite or virus in culture; format: cell-based; settings: Klebsiella pneumoniae, K. pneumoniae 194, read-out: MIC
Protocol: as §4, §1, §2

[11] = tested on: K. pneumoniae strain 170 (MLST 307, No ESBL); test: microbe, parasite or virus in culture; format: cell-based; settings: Klebsiella pneumoniae, K. pneumoniae 170, read-out: MIC
Protocol: as §4, §1, §2

[12] = tested on: K. pneumoniae strain 238 (MLST 15, ESBL); test: microbe, parasite or virus in culture; format: cell-based; settings: Klebsiella pneumoniae
Protocol: as §4, §1, §2

[13] = tested on: E. coli strain 224 (MLST 127, No ESBL); test: microbe, parasite or virus in culture; format: cell-based; settings: Escherichia coli, E. coli 224, read-out: MIC
Protocol: as §4, §1, §2

[14] = tested on: E. cloacae strain 281 (MLST 78, No ESBL); test: microbe, parasite or virus in culture; format: cell-based; settings: Enterobacter cloacae, E. cloacae 281, read-out: MIC
Protocol: as §4, §1, §2

[15] = tested on: E. cloacae strain 231 (MLST 171, No ESBL); test: microbe, parasite or virus in culture; format: cell-based; settings: Enterobacter cloacae, E. cloacae 231, read-out: MIC
Protocol: as §4, §1, §2

[16] = tested on: K. pneumoniae strain 71 (MLST 15, No ESBL); test: microbe, parasite or virus in culture; format: cell-based; settings: Klebsiella pneumoniae, K. pneumoniae 71, read-out: MIC
Protocol: as §4, §1, §2

[17] = tested on: K. pneumoniae strain 19 (MLST 11, ESBL); test: microbe, parasite or virus in culture; format: cell-based; settings: Klebsiella pneumoniae
Protocol: as §4, §1, §2

[18] = tested on: E. coli strain 177 (MLST 131, ESBL); test: microbe, parasite or virus in culture; format: cell-based; settings: Escherichia coli
Protocol: as §4, §1, §2

[19] = tested on: E. coli strain 103 (MLST 10, ESBL); test: microbe, parasite or virus in culture; format: cell-based; settings: Escherichia coli
Protocol: as §4, §1, §2

[20] = tested on: E. cloacae strain 272 (MLST 78, ESBL); test: microbe, parasite or virus in culture; format: cell-based; settings: Enterobacter cloacae
Protocol: as §4, §1, §2

[21] = tested on: K. pneumoniae strain 23 (MLST 392, ESBL); test: microbe, parasite or virus in culture; format: cell-based; settings: Klebsiella pneumoniae
Protocol: as §4, §1, §2

[22] = tested on: OXA-48-producing Enterobacterales clinical isolates; test: MIC summary over clinical isolates; format: cell-based
Protocol: as §4, §1, §2

[23] = tested on: E. coli TG1 and HB4 transformants; test: MIC summary over E. coli transformants; format: cell-based, Escherichia coli
Description: as §3, §1, §2

[24] = tested on: O=C(Cc1cccs1)N[C@@H]1C(=O)N2C(C(=O)O)=C(/C=C/c3ccc([N+](=O)[O-])cc3[N+](=O)[O-])CS[C@H]12; test: purified protein, by the assay type; settings: other: substrate hydrolysis by OXA-48; pH 7.4; 25.0 °C
[25] = BL alone or BL/BLI: AVI, REL, TAN, DUR 4 mg/L, VAB, XER 8 mg/L, ZID, NAC 1:1

Compound	MIC (E. coli TG1; β-lactamase inhibitor alone)	MIC (E. coli TG1 (OXA-48))	MIC [1]	MIC (E. coli HB4 ΔompC/F)	MIC [2]	MIC [3]	MIC [4]	MIC ([5]; β-lactamase inhibitor alone)	MIC [6]	MIC [7]	MIC ([8]; β-lactamase inhibitor alone)	MIC ([9]; β-lactamase inhibitor alone)	MIC ([10]; β-lactamase inhibitor alone)	MIC ([11]; β-lactamase inhibitor alone)	MIC [12]	MIC [17]	MIC [18]	MIC [19]	MIC [20]	MIC [21]	other results
O=C(NC1CCNCC1)[C@@H]1CC[C@@H]2CN1C(=O)N2OS(=O)(=O)O [Relebactam, relebactam]	32 µg/mL (≈ 91.9 µM)	64 µg/mL (≈ 184 µM)	≥ 128 µg/mL	≥ 128 µg/mL	≥ 128 µg/mL	≥ 128 µg/mL	≥ 128 µg/mL	≥ 128 µg/mL	≥ 128 µg/mL	≥ 128 µg/mL	≥ 128 µg/mL	≥ 128 µg/mL	≥ 128 µg/mL	≥ 128 µg/mL	≥ 128 µg/mL	≥ 128 µg/mL	≥ 128 µg/mL	≥ 128 µg/mL	≥ 128 µg/mL	≥ 128 µg/mL	MIC ([13]; β-lactamase inhibitor alone): ≥ 128 µg/mL; MIC ([14]; β-lactamase inhibitor alone): ≥ 128 µg/mL; MIC ([15]; β-lactamase inhibitor alone): ≥ 128 µg/mL; MIC ([16]; β-lactamase inhibitor alone): ≥ 128 µg/mL
CC1(C)[C@H](C(=O)O)N2C(=O)C[C@H]2S1(=O)=O [SUL, sulbactam]		32 µg/mL (≈ 137 µM)	64 µg/mL (≈ 274 µM)	32 µg/mL (≈ 137 µM)	64 µg/mL (≈ 274 µM)	32 µg/mL (≈ 137 µM)	≥ 256 µg/mL		128 µg/mL	64 µg/mL					128 µg/mL	64 µg/mL	64 µg/mL	64 µg/mL	128 µg/mL	128 µg/mL	MIC (E. coli TG1; [25]): 32 µg/mL (≈ 137 µM); MIC [22]: ≥ 64 µg/mL; MIC [5, 25]: 128 µg/mL; MIC [8, 25]: 64 µg/mL; MIC [9, 25]: 64 µg/mL; MIC [10, 25]: 64 µg/mL; MIC [11, 25]: 64 µg/mL; MIC [13, 25]: 128 µg/mL; MIC [14, 25]: 128 µg/mL; MIC [15, 25]: 64 µg/mL; MIC [16, 25]: 128 µg/mL
O=C(NNC(=O)[C@@H]1CC[C@@H]2CN1C(=O)N2OS(=O)(=O)O)[C@@H]1CCCNC1 [Zidebactam, zidebactam]	0.12 µg/mL (≈ 0.307 µM)	0.12 µg/mL (≈ 0.307 µM)	0.5 µg/mL (≈ 1.28 µM)	0.5 µg/mL (≈ 1.28 µM)	0.5 µg/mL (≈ 1.28 µM)	0.5 µg/mL (≈ 1.28 µM)	2 µg/mL	32 µg/mL	≥ 128 µg/mL	≥ 128 µg/mL	0.5 µg/mL	0.12 µg/mL	0.5 µg/mL	0.5 µg/mL	0.25 µg/mL	≥ 128 µg/mL	0.5 µg/mL	8 µg/mL	0.5 µg/mL	0.5 µg/mL	effect of ertapenem/BLI on bacterial growth ([23]; OXA-48-producing E. coli hosts, BLI 4 mg/L): totally inhibited bacterial growth; MICs of inhibitor alone (range over strains) ([23]; TG1 and HB4 E. coli): 0.12 to 2 mg/L; reduction of cefepime MICs by BLI ([22]; clinical isolates): 2–512 fold; MIC ([13]; β-lactamase inhibitor alone): 0.25 µg/mL; MIC ([14]; β-lactamase inhibitor alone): 0.25 µg/mL; MIC ([15]; β-lactamase inhibitor alone): 0.25 µg/mL; MIC ([16]; β-lactamase inhibitor alone): 0.5 µg/mL
OXA-48 (Klebsiella pneumoniae)																					Km [24]: 56.5 µM; kcat [24]: 171.4 s⁻¹; kcat/Km [24]: 3.05e+06 M⁻¹ s⁻¹
C[C@@H](O)[C@H]1C(=O)N2C(C(=O)O)=C(S[C@@H]3CN[C@H](C(=O)N(C)C)C3)[C@H](C)[C@H]12 [MER, meropenem]		≤ 0.06 µg/mL	32 µg/mL (≈ 83.4 µM)	0.12 µg/mL (≈ 0.313 µM)	32 µg/mL (≈ 83.4 µM)	0.5 µg/mL (≈ 1.3 µM)	128 µg/mL		16 µg/mL	2 µg/mL					1 µg/mL	1 µg/mL	0.5 µg/mL	0.25 µg/mL	1 µg/mL	1 µg/mL	MIC (E. coli TG1; [25]): ≤ 0.06 µg/mL; MIC [5, 25]: 1 µg/mL; MIC [8, 25]: 1 µg/mL; MIC [9, 25]: 1 µg/mL; MIC [10, 25]: 2 µg/mL; MIC [11, 25]: 1 µg/mL; MIC [13, 25]: 0.5 µg/mL; MIC [14, 25]: 1 µg/mL; MIC [15, 25]: 1 µg/mL; MIC [16, 25]: 2 µg/mL
